According to PubChem BioAssay AID2060620 (Molecular Pharmacology Branch, DTP, NCI, 2025):
pIC50: −log10 of the molar value.

System: 328373-195-R-J1-PDC complex spheroids, viability % test/control
Assay: Anticancer human tumor 328373-195-R-J1-PDC patient-derived head and neck squamous carcinoma cell line growth inhibition [CLK]
Settings: for pIC50: curve of first compound; for viability, T/C: stronger effect = lower value; active = viability on the fitted dose curve at most 10% of control; inactive = the rest
In short: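 Patient-derived tumor cells grown as complex spheroids with HUVEC endothelial cells and mesenchymal stem cells, treated with drug combinations. Concentrations descend in half-log steps from near clinical Cmax, or from 10 microM if Cmax unknown.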

[1] = second compound 0.0316 µM, first compound 0.0316 µM
[2] = second compound 0.0316 µM, first compound 0.1 µM
[3] = second compound 0.0316 µM, first compound 0.316 µM
[4] = second compound 0.0316 µM, first compound 1 µM
[5] = second compound 0.0316 µM, first compound 3.16 µM
[6] = second compound 0.0316 µM, first compound 10 µM
[7] = second compound 0.1 µM, first compound 0.0316 µM
[8] = second compound 0.1 µM, first compound 0.1 µM
[9] = second compound 0.1 µM, first compound 0.316 µM
[10] = second compound 0.1 µM, first compound 1 µM
[11] = second compound 0.1 µM, first compound 3.16 µM
[12] = second compound 0.1 µM, first compound 10 µM
[13] = second compound 0.316 µM, first compound 0.0316 µM
[14] = second compound 0.316 µM, first compound 0.1 µM
[15] = second compound 0.316 µM, first compound 0.316 µM
[16] = second compound 0.316 µM, first compound 1 µM
[17] = second compound 0.316 µM, first compound 3.16 µM
[18] = second compound 0.316 µM, first compound 10 µM
[19] = second compound 1 µM, first compound 0.0316 µM
[20] = second compound 1 µM, first compound 0.1 µM
[21] = second compound 1 µM, first compound 0.316 µM
[22] = second compound 1 µM, first compound 1 µM
[23] = second compound 1 µM, first compound 3.16 µM
[24] = second compound 1 µM, first compound 10 µM
[25] = second compound 3.16 µM, first compound 0.0316 µM
[26] = second compound 3.16 µM, first compound 0.1 µM
[27] = second compound 3.16 µM, first compound 0.316 µM
[28] = second compound 3.16 µM, first compound 1 µM
[29] = second compound 3.16 µM, first compound 3.16 µM
[30] = second compound 3.16 µM, first compound 10 µM
[31] = second compound 10 µM, first compound 0.0316 µM
[32] = second compound 10 µM, first compound 0.1 µM
[33] = second compound 10 µM, first compound 0.316 µM
[34] = second compound 10 µM, first compound 1 µM
[35] = second compound 10 µM, first compound 3.16 µM
[36] = second compound 10 µM, first compound 10 µM
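Note: spheroids exposed to the agents for 7 days.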

C#Cc1c(F)ccc2cc(O)cc(-c3ncc4c(N5CC6CCC(C5)N6)nc(OCC56CCCN5CC(F)C6)nc4c3F)c12 (stereo not given) + CNC(=O)c1ccc(Nc2nc(OC3CCCC3)c3c(-c4ccc5nc(C)oc5c4)c[nH]c3n2)c(OC)c1
5.29: pIC50 (second compound 0.0316 µM)
> 7.50: pIC50 (second compound 0.1 µM) | pIC50 (second compound 0.316 µM) | pIC50 (second compound 1 µM) | pIC50 (second compound 3.16 µM) | pIC50 (second compound 10 µM)
inactive: viability, T/C [1] 68.5% | viability, T/C [2] 63.2% | viability, T/C [3] 60.2% | viability, T/C [4] 65% | viability, T/C [5] 62.6% | viability, T/C [6] 32.6% | viability, T/C [7] 11.3% | viability, T/C [19] 10% | viability, T/C [20] 11.6% | viability, T/C [31] 10.7% | viability, T/C [32] 11.8% | viability, T/C [33] 10.1%
active: viability, T/C [8] 10.5% | viability, T/C [9] 7.58% | viability, T/C [10] 11.6% | viability, T/C [11] 9.36% | viability, T/C [12] 7.63% | viability, T/C [13] 8.02% | viability, T/C [14] 9.37% | viability, T/C [15] 9.67% | viability, T/C [16] 8.78% | viability, T/C [17] 7.32% | viability, T/C [18] 5.64% | viability, T/C [21] 8.24% | viability, T/C [22] 9.01% | viability, T/C [23] 8.47% | viability, T/C [24] 5.54% | viability, T/C [25] 9.2% | viability, T/C [26] 8.8% | viability, T/C [27] 9.68% | viability, T/C [28] 9.11% | viability, T/C [29] 9.06% | viability, T/C [30] 6.06% | viability, T/C [34] 10.3% | viability, T/C [35] 10.5% | viability, T/C [36] 4.63%

C=C(F)C(=O)N1CCN(c2nc(OCC3CCCN3C)nc3c2CCN(c2cccc4cccc(Cl)c24)C3)CC1CC#N (stereo not given) + CNC(=O)c1ccc(Nc2nc(OC3CCCC3)c3c(-c4ccc5nc(C)oc5c4)c[nH]c3n2)c(OC)c1
5.74: pIC50 (second compound 0.0316 µM)
active: viability, T/C [6] 0.11% | viability, T/C [9] 8.18% | viability, T/C [10] 10.4% | viability, T/C [11] 10.7% | viability, T/C [12] 0.09% | viability, T/C [14] 8.47% | viability, T/C [15] 10.6% | viability, T/C [16] 8.2% | viability, T/C [17] 8.71% | viability, T/C [18] 0.79% | viability, T/C [20] 9.75% | viability, T/C [21] 8.98% | viability, T/C [22] 8.73% | viability, T/C [23] 11.3% | viability, T/C [24] 0.08% | viability, T/C [27] 9.7% | viability, T/C [28] 10.9% | viability, T/C [29] 9.36% | viability, T/C [30] 0.12% | viability, T/C [33] 9.68% | viability, T/C [34] 10.4% | viability, T/C [35] 11.6% | viability, T/C [36] 0.19%
> 7.50: pIC50 (second compound 0.1 µM) | pIC50 (second compound 0.316 µM) | pIC50 (second compound 1 µM) | pIC50 (second compound 3.16 µM) | pIC50 (second compound 10 µM)
inactive: viability, T/C [1] 55% | viability, T/C [2] 57.6% | viability, T/C [3] 57% | viability, T/C [4] 57.2% | viability, T/C [5] 43.8% | viability, T/C [7] 11.2% | viability, T/C [8] 9.34% | viability, T/C [13] 10.5% | viability, T/C [19] 8.55% | viability, T/C [25] 11.6% | viability, T/C [26] 10% | viability, T/C [31] 11.1% | viability, T/C [32] 11.5%

C=CC(=O)N1CCN(c2nc(=O)n(-c3c(C)ccnc3C(C)C)c3nc(-c4c(O)cccc4F)c(F)cc23)C(C)C1 (stereo not given) + CNC(=O)c1ccc(Nc2nc(OC3CCCC3)c3c(-c4ccc5nc(C)oc5c4)c[nH]c3n2)c(OC)c1
inactive: viability, T/C [1] 57.3% | viability, T/C [2] 59.7% | viability, T/C [3] 60.2% | viability, T/C [4] 64.9% | viability, T/C [5] 65.1% | viability, T/C [6] 47.7% | viability, T/C [7] 11.2% | viability, T/C [8] 10.2% | viability, T/C [9] 11.6% | viability, T/C [10] 12.8% | viability, T/C [11] 13.2% | viability, T/C [12] 9.6% | viability, T/C [13] 8.33% | viability, T/C [14] 10.6% | viability, T/C [15] 9.38% | viability, T/C [16] 10.4% | viability, T/C [17] 13.9% | viability, T/C [18] 10.3% | viability, T/C [19] 10.1% | viability, T/C [20] 9.55% | viability, T/C [21] 9.73% | viability, T/C [22] 10.4% | viability, T/C [23] 13.2% | viability, T/C [24] 8.42% | viability, T/C [25] 10.1% | viability, T/C [26] 13.2% | viability, T/C [27] 10.9% | viability, T/C [28] 10.9% | viability, T/C [29] 15.1% | viability, T/C [30] 10.7% | viability, T/C [31] 12.8% | viability, T/C [32] 11.7% | viability, T/C [33] 12.2% | viability, T/C [34] 13.3% | viability, T/C [35] 14.5% | viability, T/C [36] 8.55%
> 7.50: pIC50 (second compound 0.1 µM) | pIC50 (second compound 0.316 µM) | pIC50 (second compound 1 µM) | pIC50 (second compound 3.16 µM) | pIC50 (second compound 10 µM)
< 5.00: pIC50 (second compound 0.0316 µM)

CCCS(=O)(=O)Nc1ccc(F)c(C(=O)c2c[nH]c3ncc(-c4ccc(Cl)cc4)cc23)c1F + CNC(=O)c1ccc(Nc2nc(OC3CCCC3)c3c(-c4ccc5nc(C)oc5c4)c[nH]c3n2)c(OC)c1
< 5.00: pIC50 (second compound 0.0316 µM)
> 7.50: pIC50 (second compound 0.1 µM) | pIC50 (second compound 0.316 µM) | pIC50 (second compound 1 µM) | pIC50 (second compound 3.16 µM) | pIC50 (second compound 10 µM)
inactive: viability, T/C [1] 61.7% | viability, T/C [2] 59.5% | viability, T/C [3] 62.4% | viability, T/C [4] 66.1% | viability, T/C [5] 56.8% | viability, T/C [6] 43.3% | viability, T/C [7] 11.7% | viability, T/C [8] 10.9% | viability, T/C [9] 12% | viability, T/C [10] 15.7% | viability, T/C [11] 13.9% | viability, T/C [12] 15.6% | viability, T/C [13] 10.2% | viability, T/C [14] 11.3% | viability, T/C [15] 11% | viability, T/C [16] 12.2% | viability, T/C [17] 10.6% | viability, T/C [18] 13.5% | viability, T/C [19] 10.9% | viability, T/C [20] 10.5% | viability, T/C [21] 11.3% | viability, T/C [22] 10.7% | viability, T/C [23] 11.1% | viability, T/C [24] 15.2% | viability, T/C [25] 10.8% | viability, T/C [26] 11.3% | viability, T/C [27] 10.3% | viability, T/C [28] 11.4% | viability, T/C [29] 12.7% | viability, T/C [30] 15.8% | viability, T/C [31] 13.8% | viability, T/C [32] 11.1% | viability, T/C [33] 11.2% | viability, T/C [34] 14.1% | viability, T/C [35] 16.6% | viability, T/C [36] 16.4%

COC1C=CCC(C)C(C)S(=O)(=O)NC(=O)c2ccc3c(c2)N(CC2CCC21)CC1(CCCc2cc(Cl)ccc21)CO3 (stereo not given) + CNC(=O)c1ccc(Nc2nc(OC3CCCC3)c3c(-c4ccc5nc(C)oc5c4)c[nH]c3n2)c(OC)c1
inactive: viability, T/C [1] 56.2% | viability, T/C [2] 70.6% | viability, T/C [3] 81.3% | viability, T/C [4] 83% | viability, T/C [5] 66.2% | viability, T/C [7] 13% | viability, T/C [8] 13.1% | viability, T/C [9] 12.5% | viability, T/C [13] 12.3% | viability, T/C [14] 11.6% | viability, T/C [15] 11.9% | viability, T/C [19] 12.7% | viability, T/C [20] 11.2% | viability, T/C [25] 11.9% | viability, T/C [31] 13.3% | viability, T/C [32] 13.5% | viability, T/C [33] 10.2%
5.37: pIC50 (second compound 0.0316 µM)
> 7.50: pIC50 (second compound 0.1 µM) | pIC50 (second compound 0.316 µM) | pIC50 (second compound 1 µM) | pIC50 (second compound 3.16 µM) | pIC50 (second compound 10 µM)
active: viability, T/C [6] 4.89% | viability, T/C [10] 15.2% | viability, T/C [11] 9.14% | viability, T/C [12] 2.12% | viability, T/C [16] 8.54% | viability, T/C [17] 6.49% | viability, T/C [18] 5.35% | viability, T/C [21] 9.61% | viability, T/C [22] 8.8% | viability, T/C [23] 6.45% | viability, T/C [24] 5.97% | viability, T/C [26] 12.1% | viability, T/C [27] 10.3% | viability, T/C [28] 7.26% | viability, T/C [29] 6.87% | viability, T/C [30] 11.6% | viability, T/C [34] 8.44% | viability, T/C [35] 8.98% | viability, T/C [36] 9.48%
